# Assay results as given in ChEMBL document CHEMBL1201862, “PubChem BioAssay data set” (2004).
#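 These data come from cells grown in 96-well plates and exposed to compound for 48 hours at five concentrations. Here, GI50 denotes the concentration required for 50% inhibition of growth.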 Active and inactive are the calls of the source. No stated cut-off is given here; in the data, active = GI50 up to about 1.1 µM and inactive = higher.
# Tests used:
# Assay in all cases: NCI tumour cell line growth inhibition, 48 h
# 786-0 = system: 786-0
# A498 = system: A498
# A549 = system: A549
# ACHN = system: ACHN
# BT-549 = system: BT-549
# CAKI-1 = system: CAKI-1
# CCRF-CEM = system: CCRF-CEM
# COLO 205 = system: COLO 205
# DU-145 = system: DU-145
# EKVX = system: EKVX
# HCT-116 = system: HCT-116
# HCT-15 = system: HCT-15
# HL-60 = system: HL-60
# HOP-62 = system: HOP-62
# HT-29 = system: HT-29
# Hs-578T = system: Hs-578T
# IGROV-1 = system: IGROV-1
# K562 = system: K562
# KM12 = system: KM12
# M14 = system: M14
# MCF7 = system: MCF7
# MDA-MB-231 = system: MDA-MB-231
# MDA-N = system: MDA-N
# MOLT-4 = system: MOLT-4
# NCI-H226 = system: NCI-H226
# NCI-H23 = system: NCI-H23
# NCI-H460 = system: NCI-H460
# NCI/ADR-RES = system: NCI/ADR-RES
# OVCAR-3 = system: OVCAR-3
# OVCAR-5 = system: OVCAR-5
# OVCAR-8 = system: OVCAR-8
# PC-3 = system: PC-3
# RPMI-8226 = system: RPMI-8226
# SF-268 = system: SF-268
# SF-295 = system: SF-295
# SF-539 = system: SF-539
# SK-MEL-2 = system: SK-MEL-2
# SK-MEL-5 = system: SK-MEL-5
# SN12C = system: SN12C
# SNB-19 = system: SNB-19
# SNB-75 = system: SNB-75
# T47D = system: T47D
# TK-10 = system: TK-10
# UACC-257 = system: UACC-257
# UACC-62 = system: UACC-62
# UO-31 = system: UO-31
# HOP-92 = system: HOP-92
# LOX IMVI = system: LOX IMVI
# MDA-MB-435 = system: MDA-MB-435
# OVCAR-4 = system: OVCAR-4
# RXF 393 = system: RXF 393
# SK-MEL-28 = system: SK-MEL-28
# SW-620 = system: SW-620
# U-251 = system: U-251
compound,measurement,setting,value
CCOC(=O)c1c(NS(=O)(=O)c2ccc(C)cc2)sc2c1CCCC2,GI50,786-0,35.2 µM (inactive)
same,GI50,A498,36.1 µM (inactive)
same,GI50,A549,24.5 µM (inactive)
same,GI50,ACHN,29.9 µM (inactive)
same,GI50,BT-549,31.7 µM (inactive)
same,GI50,CAKI-1,38.9 µM (inactive)
same,GI50,CCRF-CEM,12.1 µM (inactive)
same,GI50,COLO 205,19 µM (inactive)
same,GI50,DU-145,33.6 µM (inactive)
same,GI50,EKVX,32.6 µM (inactive)
same,GI50,HCT-116,21.4 µM (inactive)
same,GI50,HCT-15,15.9 µM
same,GI50,HL-60,42.7 µM (inactive)
same,GI50,HOP-62,23.2 µM (inactive)
same,GI50,HT-29,24.2 µM (inactive)
same,GI50,Hs-578T,26.9 µM (inactive)
same,GI50,IGROV-1,27.2 µM (inactive)
same,GI50,K562,20.6 µM (inactive)
same,GI50,KM12,19 µM (inactive)
same,GI50,M14,35.8 µM (inactive)
same,GI50,MCF7,24.4 µM (inactive)
same,GI50,MDA-MB-231,22.5 µM (inactive)
same,GI50,MDA-N,42.7 µM (inactive)
same,GI50,MOLT-4,37.6 µM (inactive)
same,GI50,NCI-H226,40.8 µM (inactive)
same,GI50,NCI-H23,18.1 µM (inactive)
same,GI50,NCI-H460,24.3 µM (inactive)
same,GI50,NCI/ADR-RES,27 µM (inactive)
same,GI50,OVCAR-3,15 µM (inactive)
same,GI50,OVCAR-5,65.3 µM (inactive)
same,GI50,OVCAR-8,35.7 µM (inactive)
same,GI50,PC-3,16.2 µM (inactive)
same,GI50,RPMI-8226,10.2 µM (inactive)
same,GI50,SF-268,26.1 µM (inactive)
same,GI50,SF-295,28 µM (inactive)
same,GI50,SF-539,29.9 µM (inactive)
same,GI50,SK-MEL-2,17.3 µM (inactive)
same,GI50,SK-MEL-5,31.8 µM (inactive)
same,GI50,SN12C,31.8 µM (inactive)
same,GI50,SNB-19,35.1 µM (inactive)
same,GI50,SNB-75,27.1 µM (inactive)
same,GI50,T47D,43.3 µM (inactive)
same,GI50,TK-10,28.4 µM (inactive)
same,GI50,UACC-257,35 µM (inactive)
same,GI50,UACC-62,17.5 µM (inactive)
same,GI50,UO-31,21.1 µM (inactive)
CCc1n[nH]c(=O)n1/N=C(\C)c1ccc([N+](=O)[O-])cc1,GI50,786-0,> 100 µM (inactive)
same,GI50,A549,86.7 µM (inactive)
same,GI50,BT-549,> 100 µM (inactive)
same,GI50,CAKI-1,> 100 µM (inactive)
same,GI50,CCRF-CEM,> 100 µM (inactive)
same,GI50,COLO 205,46.5 µM (inactive)
same,GI50,DU-145,27.5 µM (inactive)
same,GI50,EKVX,> 100 µM (inactive)
same,GI50,HCT-116,> 100 µM (inactive)
same,GI50,HCT-15,> 100 µM
same,GI50,HL-60,> 100 µM (inactive)
same,GI50,HOP-62,> 100 µM (inactive)
same,GI50,HOP-92,> 100 µM (inactive)
same,GI50,HT-29,36.6 µM (inactive)
same,GI50,Hs-578T,92.3 µM (inactive)
same,GI50,IGROV-1,82.6 µM (inactive)
same,GI50,K562,97.7 µM (inactive)
same,GI50,KM12,> 100 µM (inactive)
same,GI50,LOX IMVI,49.4 µM (inactive)
same,GI50,M14,> 100 µM (inactive)
same,GI50,MCF7,30.2 µM (inactive)
same,GI50,MDA-MB-231,19.7 µM (inactive)
same,GI50,MDA-MB-435,59.7 µM (inactive)
same,GI50,MDA-N,> 100 µM (inactive)
same,GI50,MOLT-4,> 100 µM (inactive)
same,GI50,NCI-H226,> 100 µM (inactive)
same,GI50,NCI-H23,66.8 µM (inactive)
same,GI50,NCI-H460,46.2 µM (inactive)
same,GI50,NCI/ADR-RES,> 100 µM (inactive)
same,GI50,OVCAR-3,> 100 µM (inactive)
same,GI50,OVCAR-4,> 100 µM (inactive)
same,GI50,OVCAR-5,> 100 µM (inactive)
same,GI50,OVCAR-8,> 100 µM (inactive)
same,GI50,PC-3,> 100 µM (inactive)
same,GI50,RPMI-8226,> 100 µM (inactive)
same,GI50,RXF 393,78.5 µM (inactive)
same,GI50,SF-268,26.3 µM (inactive)
same,GI50,SF-295,> 100 µM (inactive)
same,GI50,SK-MEL-28,> 100 µM (inactive)
same,GI50,SK-MEL-2,> 100 µM (inactive)
same,GI50,SK-MEL-5,> 100 µM (inactive)
same,GI50,SN12C,54.7 µM (inactive)
same,GI50,SNB-19,> 100 µM (inactive)
same,GI50,SW-620,94.2 µM (inactive)
same,GI50,T47D,> 100 µM (inactive)
same,GI50,TK-10,> 100 µM (inactive)
same,GI50,U-251,> 100 µM (inactive)
same,GI50,UACC-257,> 100 µM (inactive)
same,GI50,UACC-62,> 100 µM (inactive)
same,GI50,UO-31,> 100 µM (inactive)
